For orientation: Ki means a dissociation constant, usually derived from enzyme kinetics or from competition with a known ligand. Read a low Ki as a stronger hold on the target.

Data on nine molecules can be found in ChEMBL document CHEMBL3739384 (Medchemcomm, 2015).

Where only a bound is given, the exact number is not on record here.

Assay type in all cases: cell-based, HEK-293T
Test [1] concerns the target Beta-2 adrenergic receptor (Homo sapiens, UniProt P07550). Put plainly: Displacement of [3H]-dihydroalprenolol from human beta2 adrenergic receptor expressed in HEK293T cells after 1 to 1.5 hrs by liquid scintillation counting analysis.
The next test deals with Histamine H4 receptor (Homo sapiens, UniProt Q9H3N8). As to the kind of experiment: Displacement of [3H]-histamine from human histamine H4 receptor expressed in HEK293T cells after 1 to 1.5 hrs by liquid scintillation counting analysis. For orientation: Loss of bound radioactivity is the signal in a displacement assay; it reports binding, not function.
Sequence of Histamine H4 receptor (Q9H3N8 whole entry): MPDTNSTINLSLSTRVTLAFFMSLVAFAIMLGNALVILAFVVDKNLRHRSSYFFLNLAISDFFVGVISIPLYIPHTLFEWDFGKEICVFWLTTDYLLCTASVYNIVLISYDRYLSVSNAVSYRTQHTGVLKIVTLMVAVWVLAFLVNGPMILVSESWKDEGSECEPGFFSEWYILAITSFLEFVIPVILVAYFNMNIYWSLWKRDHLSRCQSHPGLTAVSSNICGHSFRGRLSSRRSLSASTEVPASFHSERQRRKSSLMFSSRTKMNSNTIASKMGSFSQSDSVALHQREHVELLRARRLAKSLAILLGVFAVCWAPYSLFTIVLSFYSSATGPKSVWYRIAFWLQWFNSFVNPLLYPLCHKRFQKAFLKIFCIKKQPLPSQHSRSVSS
The target of another test is Histamine H1 receptor (Homo sapiens, UniProt P35367). Put plainly: Displacement of [3H]-mepyramine from human histamine H1 receptor expressed in HEK293T cells after 1 to 1.5 hrs by liquid scintillation counting analysis.
Sequence of Histamine H1 receptor (P35367 whole entry): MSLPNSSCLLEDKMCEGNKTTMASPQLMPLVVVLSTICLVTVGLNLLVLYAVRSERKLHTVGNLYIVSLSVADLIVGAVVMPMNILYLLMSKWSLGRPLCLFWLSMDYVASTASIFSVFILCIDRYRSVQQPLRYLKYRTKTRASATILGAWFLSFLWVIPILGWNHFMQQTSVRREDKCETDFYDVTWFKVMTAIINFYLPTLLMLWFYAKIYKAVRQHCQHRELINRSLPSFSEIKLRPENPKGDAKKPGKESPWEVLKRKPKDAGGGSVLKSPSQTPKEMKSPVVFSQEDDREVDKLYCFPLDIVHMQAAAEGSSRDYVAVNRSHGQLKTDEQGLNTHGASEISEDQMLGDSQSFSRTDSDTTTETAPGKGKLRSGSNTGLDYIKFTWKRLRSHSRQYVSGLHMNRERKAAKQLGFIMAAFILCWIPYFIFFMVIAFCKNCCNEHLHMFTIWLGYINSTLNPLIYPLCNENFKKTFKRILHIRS

Sequence of Beta-2 adrenergic receptor (P07550 whole entry): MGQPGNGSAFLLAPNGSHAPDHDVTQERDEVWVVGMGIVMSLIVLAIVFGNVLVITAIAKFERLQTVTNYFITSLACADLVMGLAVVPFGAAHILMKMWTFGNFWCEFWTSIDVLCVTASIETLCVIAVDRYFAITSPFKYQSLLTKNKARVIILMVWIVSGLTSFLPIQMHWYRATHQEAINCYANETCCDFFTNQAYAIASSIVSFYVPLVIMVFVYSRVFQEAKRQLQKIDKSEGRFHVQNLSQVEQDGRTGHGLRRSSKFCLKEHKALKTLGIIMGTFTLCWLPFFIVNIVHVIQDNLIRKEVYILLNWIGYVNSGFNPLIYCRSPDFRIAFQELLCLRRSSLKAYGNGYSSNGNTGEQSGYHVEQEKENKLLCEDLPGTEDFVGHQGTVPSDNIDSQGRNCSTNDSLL

With `CN1CCN(c2ncnc3c2oc2ccccc23)CC1`, the inhibitory constant (Ki) in test [1] was over 10 µM; on Histamine H4 receptor, 0.145 µM.
As for `CCc1nc(N2CCN(C)CC2)c2oc3ccccc3c2n1`, the Ki was over 10 µM in test [1] and 0.269 µM at Histamine H4 receptor.
On to `Cc1cc(N2CCN(C)CC2)nc(N2CCOCC2)n1`, for which the Ki at Histamine H1 receptor is under 10 µM; at Histamine H4 receptor, 6.92 µM.
On to `COc1ccc2c(c1)[nH]c1c(N3CCN(C)CC3)ncnc12`, for which the values for the inhibitory constant (Ki) (in test [1]; on Histamine H4 receptor) were over 10 µM and 6.31 µM, respectively.
For the molecule `Cc1nnc2c(N3CCN(C)CC3)nc3ccccc3n12`, the values for the Ki at Histamine H1 receptor and on Histamine H4 receptor were under 10 µM and 6.46 µM, respectively.
Consider `Cc1cc2nc(SCCN(C)C)[nH]c2cc1C`, for which the Ki on Histamine H1 receptor was over 10 µM; on Histamine H4 receptor, 6.92 µM.
`Cc1nc(N2CCN(C)CC2)c2oc3ccccc3c2n1`: the Ki is over 10 µM in test [1] and 0.148 µM at Histamine H4 receptor.
On to `CN(C)CCNc1ncnc2c1[nH]c1ccc(Cl)cc12`, for which the inhibition constant Ki was over 10 µM in test [1] and 5.89 µM at Histamine H4 receptor.
The corresponding values for `COc1ccc2[nH]c3c(N4CCN(C)CC4)ncnc3c2c1` are over 10 µM and 5.89 µM.
